Reference: patent US7207289B2, “Method of feeding the cattle with feed additives that increases beef production and reduces liver abscess” (Intervet International B.V., priority 2004, dated 2007)

Experiments:
cattle = conditions: cited from earlier work
steers = assay: Study V-0238-0017: effects of Rumensin plus Tylan and zilpaterol on liver abscess rates in feedlot steers; assay type: in vivo, cattle
From the text: In study number V-0238-0017 a total of 3,945 steers were used to test the effects of Rumensin® plus Tylan® and zilpaterol on feedlot performance, liver abscess rates, and carcass traits. The inventors discovered that Tylan® and Rumensin® could be removed from the diet for the last 30 days to feed zilpaterol without negatively affecting liver abscess rates. In fact it was discovered that zilpaterol decreased the incidence of liver abscesses.
Study Number V-0238-0017, Effects of Zilpaterol on Liver Abscesses

steers and heifers = assay: Zilpaterol efficacy studies V-0238-0019, V-0238-0020, V-0238-0021 (pooled analysis): liver abscesses and feed intake; assay type: in vivo, cattle
From the text: All of these cattle had been fed Tylan® up to the last 20 to 40 days on feed at which time Tylan® was removed and cattle were either fed a control diet without Tylan®, Rumensin® or zilpaterol or cattle were fed a treatment diet containing just zilpaterol. While the mechanism by which zilpaterol decreases liver abscess is not fully clear at this time, it seems that zilpaterol functions to decrease liver abscesses by decreasing feed intake. Because the liver abscesses discovered at slaughter are formed during the last ˜60 days or less on feed and this is the same time zilpaterol is fed, a decrease in feed intake would result in a decrease in acid production and possibly a decrease in rumen wall lesions and rumenitis.
Summary of Zilpaterol Efficacy Studies (Pooled Analysis), Study Numbers, V-0238-0019, V-0238-0020, and V-0238-0021 on Liver Abscesses and Feed Intake

| SMILES | feed intake and dressing percentage (cattle; Laudert and Vogel (1994)) | gain and feed to gain ratio (cattle; Laudert and Vogel (1994)) | average daily gain (cattle; Potter et al. (1985)) | feed intake (cattle; Potter et al. (1985)) | liver abscesses being reduced (cattle; cattle treated with Tylan, typical) [%] | Live Abscess, % (steers; 166-day study, 3,945 steers, 10 pens per treatment, zilpaterol fed for the last 30 days on feed) [%] | incidence of liver abscesses (effect in words) (steers; study V-0238-0017, steers) | Average Daily Dry Matter Intake, lbs. (steers and heifers; pooled analysis of three studies, zilpaterol for the last 20 or 40 days) [lbs.] | % of Livers Condemned for Abscesses (steers and heifers; pooled, 957 animals, Tylan removed for the last 20 to 40 days, diet containing just zilpaterol) [%] | liver abscesses (effect in words) (steers and heifers; steers and heifers supplemented for 20 or 40 days) |
| --- | --- | --- | --- | --- | --- | --- | --- | --- | --- | --- |
| CC[C@H]1OC(=O)C[C@@H](O)[C@H](C)[C@@H](O[C@@H]2O[C@H](C)[C@@H](O[C@H]3C[C@@](C)(O)[C@@H](O)[C@H](C)O3)[C@H](N(C)C)[C@H]2O)[C@@H](CC=O)C[C@@H](C)C(=O)/C=C/C(C)=C/[C@@H]1CO[C@@H]1O[C@H](C)[C@@H](O)[C@@H](OC)[C@H]1OC [Tylan, Tylosin] | only minor effects | improved | improved | no effect | 63 to 71 | – | – | – | – | – |
| CC(C)NC1CCn2c(=O)[nH]c3cccc(c32)C1O (stereo not shown) [Zilpaterol] | – | – | – | – | – | 13.29 | decreased | 18.69 | 19.1 | significantly decreased |
